Experimental data: PubChem BioAssay AID1996
Converted amounts (≈) assume the structure as drawn.

Conditions: buffer; pH 7.4; 200.0 µM

Row | Compound | solubility kinetic [µg/mL]
1 | COc1ccc(CNCCC2(C(C)C)CCOC(C)(C)C2)cc1 (centres undefined) | > 47.9
2 | O=C(OCC(=O)N1CCCc2ccccc21)c1cc(Cl)ccc1O | 3.4 (≈ 9.83 µM)
3 | COc1cccc(SCC2CSc3nc4ccccc4c(=O)n32)c1 (centres undefined) | > 53.5
4 | Cc1nn(C)cc1S(=O)(=O)NCc1ccc2c(c1)OCO2 | > 46.4
5 | CC(=O)c1cccc(NC(=O)CN2C(=O)NC(C)(C)C2=O)c1 | > 45.5
6 | O=C(COC(=O)c1ccc(F)cc1F)NCc1ccc2c(c1)OCO2 | 4.9 (≈ 14 µM)
7 | Cc1ccc(C(=O)N2CCC(C(=O)NC3CCCC3)CC2)cc1 | 44 (≈ 140 µM)
8 | C=CCC(O)(CC=C)C(C)N.Cl (centres undefined) | > 28.8
9 | O=c1[nH]c(/C=C\c2ccc(O)c(O)c2)nc(O)c1[N+](=O)[O-] | > 43.7
10 | CC(C)CC(=O)N1CCN(C(=O)c2ccc(F)cc2)CC1 | > 43.9
11 | COc1ccc(NC(=O)c2cc(C)n(Cc3cccs3)c2C)cc1 | 1.3 (≈ 3.82 µM)
12 | CCN(CC)c1cc(Cl)c2nonc2c1N | 8.5 (≈ 35.3 µM)
13 | O=C(Nc1ccc([N+](=O)[O-])c(NC(=O)c2cccnc2)c1)c1cccnc1 | 3.3 (≈ 9.08 µM)
14 | CCOc1ccc(S(=O)(=O)N2CCCCC2)c(C)c1C | 9.7 (≈ 32.6 µM)
15 | NS(=O)(=O)c1cc(C(=O)N2CCNC(=O)C2)ccc1Cl | > 47.7
16 | Cc1nc(C(F)(F)F)ccc1C(=O)Nc1ccccc1F | > 44.7
17 | CCOc1ccc(C2CC(=O)NC2=O)cc1 (centres undefined) | > 32.9
18 | COc1ccc(NC(=O)c2cc([N+](=O)[O-])ccc2O)cc1 | > 43.2
19 | NS(=O)(=O)c1cccc(NC(=O)c2cccc(S(=O)(=O)N3CCCCCC3)c2)c1 | 49.9 (≈ 114 µM)
20 | O=C(COc1ccc(F)cc1)Nc1ccc2c(c1)OCCO2 | 7.9 (≈ 26 µM)
21 | Cl.O=c1cn[nH]c2ccccc12 | > 27.4
22 | Cc1cc(O)cc(=O)n1C | > 20.9
23 | CCCCCCc1c(C)[nH]c2nc3ccccc3n2c1=O | < 0.2
24 | O=C(COC(=O)c1cc(Cl)ccc1Cl)NC1CCCC1 | 23.8 (≈ 75.3 µM)
25 | CCOC(=O)c1cnc(SC)nc1NCCOC | > 40.7

Row | Compound | solubility kinetic [µg/mL]
26 | Cc1occc1C(=O)Nc1ccc(S(N)(=O)=O)cc1 | > 42
27 | CN1CCN(c2ccc(F)cc2N)CC1 | > 31.4
28 | COc1ccccc1N(CC(=O)NC1CCCCC1C)S(=O)(=O)c1cccs1 (centres undefined) | 2 (≈ 4.73 µM)
29 | CN(C)CCC(O)c1ccccc1 (centres undefined) | 13.3 (≈ 74.2 µM)
30 | COc1ccc(C/C(N)=N/OC(=O)CCc2ccccc2)cc1 | 7.7 (≈ 24.7 µM)
31 | COCCNC(=S)N(C)C1(c2ccccc2Cl)CCCCC1=O (centres undefined) | 48.2 (≈ 136 µM)
32 | CCOc1ccc(S(=O)(=O)N2CCN(c3ncccn3)CC2)cc1 | 2.7 (≈ 7.75 µM)
33 | O=C(O)CC1(CC(=O)Nc2cccc(C(=O)O)c2)CCCC1 | > 45.8
34 | NCCNc1ccc([N+](=O)[O-])c2cccnc12 | 28.7 (≈ 124 µM)
35 | CC(C)(C)c1ccc(/C=C(\C#N)C(=O)Nc2ccccn2)cc1 | 0.6 (≈ 1.96 µM)
36 | c1ccc(COCC2CCNCC2)cc1 | > 30.8
37 | NC(=O)COc1ccccc1C(=O)NC12CC3CC(CC(C3)C1)C2 | 14.2 (≈ 43.2 µM)
38 | CC(=O)c1cc(C)ccc1OC(=O)CN1C(=O)c2ccccc2C1=O | 24.6 (≈ 72.9 µM)
39 | O=C(CCN1C(=O)c2ccccc2S1(=O)=O)Nc1ccc(Cl)cc1 | 0.9 (≈ 2.47 µM)
40 | Cc1cc(OCC(=O)NCCN2CCOCC2)cc(C)c1Cl | > 49
41 | O=C(O)/C=C/C(=O)N1CCN(C(c2ccccc2)c2ccccc2)CC1 | > 52.6
42 | Cc1cc(C)cc(NC(=O)CN2CCC(C(=O)c3ccccc3)CC2)c1 | 16.5 (≈ 47.1 µM)
43 | CC(OC(=O)c1c(F)cccc1F)C(=O)NCCC1=CCCCC1 (centres undefined) | > 50.6
44 | CC1(C)Cc2nc(NC3CCCCC3)c(C#N)cc2CO1 | 1.7 (≈ 5.96 µM)
45 | CCOC(=O)C1=C(C)N(C)C(C)=C(C(=O)OCC)C1c1ccsc1 | 2 (≈ 5.72 µM)
46 | CCOc1ccccc1Nc1cc(C)nc2ccc(C)cc12 | > 43.9
47 | CC(NC(=O)CN(C)Cc1cccc(F)c1)c1ccccc1 (centres undefined) | > 45.1
48 | CC1CCc2sc(C(=O)NC(C)C3CCCO3)cc2C1 (centres undefined) | > 44
49 | CCCCc1ccc(NC2=NCCCS2)cc1 | 26.4 (≈ 106 µM)
